Laboratory results from ChEMBL document CHEMBL1147649, “Design and synthesis of potent beta-secretase (BACE1) inhibitors with P1' carboxylic acid bioisosteres” (Bioorg Med Chem Lett, 2006).
pIC50: −log10 of the molar value.

Legend:
Beta-secretase 1 [1] = target: T1, Beta-secretase 1 (Homo sapiens, UniProt P56817); test: Inhibition of BACE1 at 2 uM
Beta-secretase 1 [2] = target: T1, Beta-secretase 1; test: Inhibition of BACE1 at 0.2 uM
Beta-secretase 1 [3] = target: T1, Beta-secretase 1; test: Inhibition of BACE1

T1 sequence (P56817 whole entry): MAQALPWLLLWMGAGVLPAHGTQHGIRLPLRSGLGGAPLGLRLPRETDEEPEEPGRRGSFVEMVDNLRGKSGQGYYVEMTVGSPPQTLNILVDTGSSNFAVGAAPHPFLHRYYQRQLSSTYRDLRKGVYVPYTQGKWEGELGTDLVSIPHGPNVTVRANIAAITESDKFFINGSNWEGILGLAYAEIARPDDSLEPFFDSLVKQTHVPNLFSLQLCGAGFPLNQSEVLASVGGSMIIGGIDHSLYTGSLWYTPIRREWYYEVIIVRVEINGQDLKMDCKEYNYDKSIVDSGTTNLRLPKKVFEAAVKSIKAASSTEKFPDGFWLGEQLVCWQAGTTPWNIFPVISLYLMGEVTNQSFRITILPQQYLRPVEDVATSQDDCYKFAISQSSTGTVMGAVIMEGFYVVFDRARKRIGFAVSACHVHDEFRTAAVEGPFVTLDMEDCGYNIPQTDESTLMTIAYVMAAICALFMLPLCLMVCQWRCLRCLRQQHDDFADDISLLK

Row | Structure (SMILES) | inhibition (Beta-secretase 1 [1]) | inhibition (Beta-secretase 1 [2]) | pIC50 (Beta-secretase 1 [3])
1 | CC(C)C[C@H](NC(=O)[C@@H](NC(=O)[C@@H](N)CCC(=O)O)C(C)C)C(=O)N[C@@H](Cc1ccccc1)[C@@H](O)C(=O)Nc1cccc(C(=N)N)c1 | 29.2% | – | –
2 | CC(C)C[C@H](NC(=O)[C@@H](NC(=O)[C@@H](N)CCC(=O)O)C(C)C)C(=O)N[C@@H](Cc1ccccc1)[C@@H](O)C(=O)Nc1cc(-c2nn[nH]n2)cc(-c2nn[nH]n2)c1 | 99.7% | 94% | 8.19
3 | CC(C)C[C@H](NC(=O)[C@@H](NC(=O)[C@@H](N)CNC(=O)c1nn[nH]n1)C(C)C)C(=O)N[C@@H](Cc1ccccc1)[C@@H](O)C(=O)Nc1cccc(-c2noc(S)n2)c1 | 99.8% | 97.2% | –
4 | CC(C)C[C@H](NC(=O)[C@@H](NC(=O)[C@@H](N)CNC(=O)c1nn[nH]n1)C(C)C)C(=O)N[C@@H](Cc1ccccc1)[C@@H](O)C(=O)Nc1cc(-c2nn[nH]n2)cc(-c2nn[nH]n2)c1 | 100% | 100% | –
5 | CC(C)C[C@H](NC(=O)[C@@H](NC(=O)[C@@H](N)CNC(=O)c1nnn[nH]1)C(C)C)C(=O)N[C@@H](Cc1ccccc1)[C@@H](O)C(=O)Nc1cccc(-c2nnn[nH]2)c1 | – | – | 8.32
6 | CC(C)C[C@H](NC(=O)[C@@H](NC(=O)[C@@H](N)CCC(=O)O)C(C)C)C(=O)N[C@@H](Cc1ccccc1)[C@@H](O)C(=O)Nc1cccc(C(=O)O)c1 | – | 44.4% | –
7 | CC(C)C[C@H](NC(=O)[C@@H](NC(=O)[C@@H](N)CCC(=O)O)C(C)C)C(=O)N[C@@H](Cc1ccccc1)[C@@H](O)C(=O)Nc1cccc(-c2n[nH]c(=S)n2C)c1 | 74.2% | – | –
8 | CC(C)C[C@H](NC(=O)[C@@H](NC(=O)[C@@H](N)CNC(=O)c1nnn[nH]1)C(C)C)C(=O)N[C@@H](Cc1ccccc1)[C@@H](O)C(=O)Nc1cccc(-c2nc(=S)o[nH]2)c1 | – | – | 8.19
9 | CC(C)C[C@H](NC(=O)[C@@H](NC(=O)[C@@H](N)CCC(=O)O)C(C)C)C(=O)N[C@@H](Cc1ccccc1)[C@@H](O)C(=O)Nc1cccc(C(N)=O)c1 | 62.1% | – | –
10 | CC(C)C[C@H](NC(=O)[C@@H](NC(=O)[C@@H](N)CNC(=O)c1nn[nH]n1)C(C)C)C(=O)N[C@@H](Cc1ccccc1)[C@@H](O)C(=O)Nc1cccc(C(N)=O)c1 | 97.3% | 78.1% | –
11 | CC(C)C[C@H](NC(=O)[C@@H](NC(=O)[C@@H](N)CNC(=O)c1nnn[nH]1)C(C)C)C(=O)N[C@@H](Cc1ccccc1)[C@@H](O)C(=O)Nc1cc(-c2nnn[nH]2)cc(-c2nnn[nH]2)c1 | – | – | 8.92
12 | CC(C)C[C@H](NC(=O)[C@@H](NC(=O)[C@@H](N)CNC(=O)c1nn[nH]n1)C(C)C)C(=O)N[C@@H](Cc1ccccc1)[C@@H](O)C(=O)Nc1cccc(-c2noc(O)n2)c1 | 100% | 94.2% | 8.18
13 | CC(C)C[C@H](NC(=O)[C@@H](NC(=O)[C@@H](N)CCC(=O)O)C(C)C)C(=O)N[C@@H](Cc1ccccc1)[C@@H](O)C(=O)Nc1cc(C(=O)O)cc(C(=O)O)c1 | 98.3% | 84.3% | –

Other lines, results leading:

Row | inhibition (Beta-secretase 1 [1]) | inhibition (Beta-secretase 1 [2]) | pIC50 (Beta-secretase 1 [3]) | Structure (SMILES)
14 | 94.5% | 68.4% | – | CC(C)C[C@H](NC(=O)[C@@H](NC(=O)[C@@H](N)CCC(=O)O)C(C)C)C(=O)N[C@@H](Cc1ccccc1)[C@@H](O)C(=O)Nc1cccc(-c2noc(=S)[nH]2)c1
15 | 92.2% | 73.7% | – | CC(C)C[C@H](NC(=O)[C@@H](NC(=O)[C@@H](N)CCC(=O)O)C(C)C)C(=O)N[C@@H](Cc1ccccc1)[C@@H](O)C(=O)Nc1cccc(-c2nn[nH]n2)c1
16 | 94.4% | 66.3% | – | CC(C)C[C@H](NC(=O)[C@@H](NC(=O)[C@@H](N)CCC(=O)O)C(C)C)C(=O)N[C@@H](Cc1ccccc1)[C@@H](O)C(=O)Nc1cccc(-c2noc(=O)[nH]2)c1
17 | 92% | 72.3% | – | CC(C)C[C@H](NC(=O)[C@@H](NC(=O)[C@@H](N)CCC(=O)O)C(C)C)C(=O)N[C@@H](Cc1ccccc1)[C@@H](O)C(=O)Nc1cccc(-c2n[nH]c(=S)o2)c1
18 | 91.9% | 63.2% | – | CC(C)C[C@H](NC(=O)[C@@H](NC(=O)[C@@H](N)CCC(=O)O)C(C)C)C(=O)N[C@@H](Cc1ccccc1)[C@@H](O)C(=O)Nc1cccc(-c2nsc(=O)[nH]2)c1
